In PMC3914206:

Legend:
Test in all cases: KiNativ chemical proteomics profiling in HeLa and PC3 cell lysates
Assay type in all cases: binding
[1] = target: T1, selected panels of kinases in HeLa and PC3 cell lysates (Homo sapiens, UniProt O96017); details: 10 uM
T1 construct: endogenous in cells; host or cells: HeLa and PC3 cell lysates

[2] = target: T2, selected panels of kinases in HeLa and PC3 cell lysates (Homo sapiens, UniProt P24941); details: 10 uM, peptide DLk[…], labeling site Lys2
T2 construct: endogenous in cells; host or cells: HeLa and PC3 cell lysates

[3] = target: T3, selected panels of kinases in HeLa and PC3 cell lysates (Homo sapiens, UniProt P45985); details: 10 uM, proteome PC3
T3 construct: endogenous in cells; host or cells: HeLa and PC3 cell lysates
T3 sequence (P45985 1-399): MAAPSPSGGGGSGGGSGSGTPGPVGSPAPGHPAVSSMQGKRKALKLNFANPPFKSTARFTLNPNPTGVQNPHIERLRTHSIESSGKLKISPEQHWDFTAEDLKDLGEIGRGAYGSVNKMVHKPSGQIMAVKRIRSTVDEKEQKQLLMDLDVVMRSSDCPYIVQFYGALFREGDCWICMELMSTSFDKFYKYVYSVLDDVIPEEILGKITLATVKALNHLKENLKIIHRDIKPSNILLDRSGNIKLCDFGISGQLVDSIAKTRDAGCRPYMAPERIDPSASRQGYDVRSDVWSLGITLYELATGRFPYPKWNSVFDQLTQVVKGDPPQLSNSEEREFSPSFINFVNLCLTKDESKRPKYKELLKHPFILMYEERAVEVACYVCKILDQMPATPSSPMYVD

[4] = target: T4, selected panels of kinases in HeLa and PC3 cell lysates (Homo sapiens, UniProt Q13418); details: 10 uM
T4 construct: endogenous in cells; host or cells: HeLa and PC3 cell lysates
T4 sequence (Q13418 1-452): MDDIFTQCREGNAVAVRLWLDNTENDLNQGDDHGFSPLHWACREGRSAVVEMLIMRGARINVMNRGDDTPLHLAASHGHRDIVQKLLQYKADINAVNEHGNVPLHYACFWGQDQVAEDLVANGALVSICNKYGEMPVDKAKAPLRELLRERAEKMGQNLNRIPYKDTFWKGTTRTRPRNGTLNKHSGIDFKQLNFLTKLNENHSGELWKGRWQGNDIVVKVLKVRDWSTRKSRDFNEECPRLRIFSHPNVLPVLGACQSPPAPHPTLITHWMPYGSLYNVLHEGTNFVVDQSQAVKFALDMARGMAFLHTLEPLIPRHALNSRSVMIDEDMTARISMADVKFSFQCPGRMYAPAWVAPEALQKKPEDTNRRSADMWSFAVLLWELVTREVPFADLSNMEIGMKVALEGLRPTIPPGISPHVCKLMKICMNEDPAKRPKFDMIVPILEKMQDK

[5] = target: T5, selected panels of kinases in HeLa and PC3 cell lysates (Homo sapiens, UniProt Q6PHR2); details: 10 uM; ULK3; peptide EVVAIkCVAK; proteome HEL; labeling site Lys1
T5 construct: endogenous in cells; host or cells: HeLa and PC3 cell lysates

[6] = target: T6, selected panels of kinases in HeLa and PC3 cell lysates (Homo sapiens, UniProt Q86SG6); details: 10 uM; proteome PC3; peptide DLkTQNILLDK; labeling site Lys2
T6 construct: endogenous in cells; host or cells: HeLa and PC3 cell lysates

[7] = target: T7, selected panels of kinases in HeLa and PC3 cell lysates (Homo sapiens, UniProt Q8IU85); details: 10 uM; proteome HEL; peptide LFAVkCIPK; labeling site Lys1
T7 construct: endogenous in cells; host or cells: HeLa and PC3 cell lysates

[8] = target: T8, selected panels of kinases in HeLa and PC3 cell lysates (Homo sapiens, UniProt Q8NEB9); details: 10 uM; PIK3C3; peptide […]kHGDDLR; proteome HEL; labeling site ATP
T8 construct: endogenous in cells; host or cells: HeLa and PC3 cell lysates

[9] = target: T9, selected panels of kinases in HeLa and PC3 cell lysates (Homo sapiens, UniProt Q9NZJ5); details: 10 uM, PEK, peptide DLk[…], labeling site Lys2
T9 construct: endogenous in cells; host or cells: HeLa and PC3 cell lysates
T9 sequence (Q9NZJ5 30-1116): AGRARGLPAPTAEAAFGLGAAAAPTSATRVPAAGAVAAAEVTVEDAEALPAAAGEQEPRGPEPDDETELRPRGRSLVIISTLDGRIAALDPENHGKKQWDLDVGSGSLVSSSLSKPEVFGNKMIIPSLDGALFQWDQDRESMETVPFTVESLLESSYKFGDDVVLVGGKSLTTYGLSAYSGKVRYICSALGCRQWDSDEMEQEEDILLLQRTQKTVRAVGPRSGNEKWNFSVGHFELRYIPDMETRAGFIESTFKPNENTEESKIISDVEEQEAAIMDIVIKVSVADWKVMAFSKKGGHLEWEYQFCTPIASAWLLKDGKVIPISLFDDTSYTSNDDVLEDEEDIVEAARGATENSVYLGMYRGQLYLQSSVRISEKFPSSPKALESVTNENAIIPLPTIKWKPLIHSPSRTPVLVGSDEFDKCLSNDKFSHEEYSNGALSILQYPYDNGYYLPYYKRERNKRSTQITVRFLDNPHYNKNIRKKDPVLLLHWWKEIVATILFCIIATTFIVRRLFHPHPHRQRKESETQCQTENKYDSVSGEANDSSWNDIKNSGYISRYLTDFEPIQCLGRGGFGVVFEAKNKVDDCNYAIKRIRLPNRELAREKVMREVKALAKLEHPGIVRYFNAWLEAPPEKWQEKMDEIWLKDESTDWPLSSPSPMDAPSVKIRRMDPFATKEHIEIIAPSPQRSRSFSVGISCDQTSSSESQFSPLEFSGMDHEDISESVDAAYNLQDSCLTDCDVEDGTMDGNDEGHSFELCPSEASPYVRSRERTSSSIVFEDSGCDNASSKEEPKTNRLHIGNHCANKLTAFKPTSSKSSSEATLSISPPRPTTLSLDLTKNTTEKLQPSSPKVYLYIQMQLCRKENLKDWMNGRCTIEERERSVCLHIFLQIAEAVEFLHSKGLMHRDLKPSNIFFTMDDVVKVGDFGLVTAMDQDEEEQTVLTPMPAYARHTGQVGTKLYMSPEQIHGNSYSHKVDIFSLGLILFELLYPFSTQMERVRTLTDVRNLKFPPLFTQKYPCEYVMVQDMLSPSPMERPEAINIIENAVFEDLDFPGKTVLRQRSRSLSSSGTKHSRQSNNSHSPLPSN

[10] = target: T10, selected panels of kinases in HeLa and PC3 cell lysates (Homo sapiens, UniProt Q9Y5S2); details: 10 uM, proteome PC3
T10 construct: endogenous in cells; host or cells: HeLa and PC3 cell lysates

[11] = proteome HEL, peptide DLk[…], labeling site Lys2
[12] = proteome PC3, peptide DLk[…], labeling site Lys2
[13] = proteome PC3, peptide VAIkIISK, labeling site Lys1
[14] = peptide DIkPSNILLDR, labeling site Lys2
[15] = peptide […]kR, labeling site Lys1
[16] = proteome HEL, peptide WQGNDIVVkVLK, labeling site Lys1
[17] = proteome PC3, peptide ISMADVkFSFQCPGR, labeling site Protein Kinase Domain
[18] = proteome PC3, peptide WQGNDIVVkVLK, labeling site Lys1
[19] = peptide DIk[…], labeling site Lys2
[20] = peptide […]kLPETK, labeling site Other

T1 sequence (O96017 whole entry): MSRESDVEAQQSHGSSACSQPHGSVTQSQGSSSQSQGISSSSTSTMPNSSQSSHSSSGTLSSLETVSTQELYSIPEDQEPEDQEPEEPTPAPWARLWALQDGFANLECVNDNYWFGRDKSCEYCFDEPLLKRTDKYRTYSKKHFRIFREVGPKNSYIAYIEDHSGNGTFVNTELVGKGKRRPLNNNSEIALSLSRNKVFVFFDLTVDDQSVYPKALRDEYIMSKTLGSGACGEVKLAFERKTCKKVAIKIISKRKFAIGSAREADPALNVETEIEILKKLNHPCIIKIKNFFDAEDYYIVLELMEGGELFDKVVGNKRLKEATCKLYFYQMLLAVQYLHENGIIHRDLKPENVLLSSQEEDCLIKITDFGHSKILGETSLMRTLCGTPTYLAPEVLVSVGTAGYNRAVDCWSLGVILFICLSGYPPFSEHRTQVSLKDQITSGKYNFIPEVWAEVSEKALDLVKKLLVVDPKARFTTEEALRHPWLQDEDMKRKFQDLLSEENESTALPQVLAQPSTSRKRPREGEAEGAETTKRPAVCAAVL
T10 sequence (Q9Y5S2 whole entry): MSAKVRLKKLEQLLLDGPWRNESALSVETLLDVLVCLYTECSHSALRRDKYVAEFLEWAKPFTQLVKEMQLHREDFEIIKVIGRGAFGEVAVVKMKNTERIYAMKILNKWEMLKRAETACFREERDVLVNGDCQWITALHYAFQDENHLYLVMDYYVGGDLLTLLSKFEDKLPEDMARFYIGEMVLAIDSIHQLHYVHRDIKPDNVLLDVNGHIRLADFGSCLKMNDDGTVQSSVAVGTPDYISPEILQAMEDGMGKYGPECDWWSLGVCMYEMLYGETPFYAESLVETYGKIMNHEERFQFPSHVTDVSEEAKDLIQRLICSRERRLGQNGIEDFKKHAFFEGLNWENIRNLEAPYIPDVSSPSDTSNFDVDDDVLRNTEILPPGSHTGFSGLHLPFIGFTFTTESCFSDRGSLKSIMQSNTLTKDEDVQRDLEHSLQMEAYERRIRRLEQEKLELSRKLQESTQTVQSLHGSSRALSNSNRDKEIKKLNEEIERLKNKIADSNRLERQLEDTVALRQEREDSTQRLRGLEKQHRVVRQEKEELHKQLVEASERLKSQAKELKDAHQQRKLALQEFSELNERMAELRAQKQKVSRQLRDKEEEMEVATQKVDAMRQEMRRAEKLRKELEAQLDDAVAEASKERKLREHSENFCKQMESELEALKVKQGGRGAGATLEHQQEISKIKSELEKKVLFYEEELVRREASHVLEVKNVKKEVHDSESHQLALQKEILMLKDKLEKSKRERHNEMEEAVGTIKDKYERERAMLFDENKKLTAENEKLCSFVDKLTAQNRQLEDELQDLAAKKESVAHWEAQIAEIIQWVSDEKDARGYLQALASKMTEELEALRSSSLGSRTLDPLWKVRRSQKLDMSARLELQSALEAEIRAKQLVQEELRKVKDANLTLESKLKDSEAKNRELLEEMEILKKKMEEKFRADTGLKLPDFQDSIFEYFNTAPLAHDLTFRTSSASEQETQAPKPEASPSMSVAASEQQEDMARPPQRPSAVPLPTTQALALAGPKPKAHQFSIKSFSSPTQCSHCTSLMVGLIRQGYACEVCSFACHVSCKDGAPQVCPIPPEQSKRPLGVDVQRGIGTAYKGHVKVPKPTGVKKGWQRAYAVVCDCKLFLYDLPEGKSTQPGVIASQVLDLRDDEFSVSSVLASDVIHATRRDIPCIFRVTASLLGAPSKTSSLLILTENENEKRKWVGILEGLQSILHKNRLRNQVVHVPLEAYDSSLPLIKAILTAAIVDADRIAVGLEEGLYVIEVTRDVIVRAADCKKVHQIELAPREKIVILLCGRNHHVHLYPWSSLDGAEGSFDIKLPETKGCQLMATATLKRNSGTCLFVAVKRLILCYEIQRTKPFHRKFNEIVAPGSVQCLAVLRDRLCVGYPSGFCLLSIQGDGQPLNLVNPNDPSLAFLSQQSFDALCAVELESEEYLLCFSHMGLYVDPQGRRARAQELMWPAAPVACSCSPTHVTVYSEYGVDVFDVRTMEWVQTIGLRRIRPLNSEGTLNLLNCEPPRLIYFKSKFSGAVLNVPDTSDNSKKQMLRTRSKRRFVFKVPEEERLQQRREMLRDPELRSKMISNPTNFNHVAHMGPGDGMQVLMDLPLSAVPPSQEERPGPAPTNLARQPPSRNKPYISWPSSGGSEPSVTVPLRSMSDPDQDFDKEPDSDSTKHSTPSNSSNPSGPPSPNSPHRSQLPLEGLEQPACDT
T6 sequence (Q86SG6 whole entry): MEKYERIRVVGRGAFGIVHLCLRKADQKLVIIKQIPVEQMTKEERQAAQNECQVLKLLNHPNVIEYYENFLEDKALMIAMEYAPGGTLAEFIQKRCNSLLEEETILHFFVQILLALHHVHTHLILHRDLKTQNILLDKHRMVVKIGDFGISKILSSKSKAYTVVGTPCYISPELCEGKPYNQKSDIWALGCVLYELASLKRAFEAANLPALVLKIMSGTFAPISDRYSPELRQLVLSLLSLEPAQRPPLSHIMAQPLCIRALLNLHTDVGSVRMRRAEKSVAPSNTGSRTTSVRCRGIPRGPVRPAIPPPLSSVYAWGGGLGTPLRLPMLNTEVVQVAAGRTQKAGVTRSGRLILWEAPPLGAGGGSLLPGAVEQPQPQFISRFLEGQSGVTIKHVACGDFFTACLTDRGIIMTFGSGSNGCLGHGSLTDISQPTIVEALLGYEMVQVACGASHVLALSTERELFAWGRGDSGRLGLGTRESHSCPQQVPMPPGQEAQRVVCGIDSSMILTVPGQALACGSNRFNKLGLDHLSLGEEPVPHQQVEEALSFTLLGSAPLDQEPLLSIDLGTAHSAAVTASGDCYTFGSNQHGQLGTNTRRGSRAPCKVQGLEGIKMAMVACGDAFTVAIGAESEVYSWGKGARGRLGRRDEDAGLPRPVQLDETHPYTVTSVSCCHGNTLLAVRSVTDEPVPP
T7 sequence (Q8IU85 whole entry): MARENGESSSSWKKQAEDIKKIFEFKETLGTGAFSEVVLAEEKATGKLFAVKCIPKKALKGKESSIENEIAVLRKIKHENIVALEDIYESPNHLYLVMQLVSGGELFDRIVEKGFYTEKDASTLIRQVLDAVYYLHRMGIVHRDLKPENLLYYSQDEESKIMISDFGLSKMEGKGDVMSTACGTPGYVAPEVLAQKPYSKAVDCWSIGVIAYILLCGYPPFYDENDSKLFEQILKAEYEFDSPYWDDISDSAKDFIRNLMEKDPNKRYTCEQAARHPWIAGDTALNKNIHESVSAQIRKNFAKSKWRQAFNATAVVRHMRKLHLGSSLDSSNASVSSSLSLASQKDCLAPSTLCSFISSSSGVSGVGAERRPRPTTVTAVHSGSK
T8 sequence (Q8NEB9 whole entry): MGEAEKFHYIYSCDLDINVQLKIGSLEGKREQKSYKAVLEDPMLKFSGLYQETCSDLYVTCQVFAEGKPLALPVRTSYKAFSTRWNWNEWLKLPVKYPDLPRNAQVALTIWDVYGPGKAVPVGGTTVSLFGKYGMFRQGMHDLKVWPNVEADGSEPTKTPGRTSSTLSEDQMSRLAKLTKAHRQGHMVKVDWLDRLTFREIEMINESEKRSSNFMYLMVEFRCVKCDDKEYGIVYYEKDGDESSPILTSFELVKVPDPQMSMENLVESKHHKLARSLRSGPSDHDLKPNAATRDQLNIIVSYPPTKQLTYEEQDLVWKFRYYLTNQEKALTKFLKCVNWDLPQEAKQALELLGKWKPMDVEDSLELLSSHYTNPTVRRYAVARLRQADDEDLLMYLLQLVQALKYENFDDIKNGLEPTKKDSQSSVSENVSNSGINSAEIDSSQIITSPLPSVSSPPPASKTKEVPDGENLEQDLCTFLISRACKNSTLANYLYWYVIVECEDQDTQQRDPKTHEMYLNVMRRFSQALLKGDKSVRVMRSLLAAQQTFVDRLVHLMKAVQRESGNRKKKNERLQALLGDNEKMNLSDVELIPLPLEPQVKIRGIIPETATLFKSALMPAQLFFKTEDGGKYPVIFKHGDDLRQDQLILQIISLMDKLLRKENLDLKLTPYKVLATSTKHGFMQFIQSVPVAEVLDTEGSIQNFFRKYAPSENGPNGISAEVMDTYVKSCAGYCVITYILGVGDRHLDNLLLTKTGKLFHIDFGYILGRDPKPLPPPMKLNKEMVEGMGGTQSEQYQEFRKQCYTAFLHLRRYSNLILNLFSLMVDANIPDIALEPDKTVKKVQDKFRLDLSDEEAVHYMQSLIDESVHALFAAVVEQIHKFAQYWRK
T5 sequence (Q6PHR2 whole entry): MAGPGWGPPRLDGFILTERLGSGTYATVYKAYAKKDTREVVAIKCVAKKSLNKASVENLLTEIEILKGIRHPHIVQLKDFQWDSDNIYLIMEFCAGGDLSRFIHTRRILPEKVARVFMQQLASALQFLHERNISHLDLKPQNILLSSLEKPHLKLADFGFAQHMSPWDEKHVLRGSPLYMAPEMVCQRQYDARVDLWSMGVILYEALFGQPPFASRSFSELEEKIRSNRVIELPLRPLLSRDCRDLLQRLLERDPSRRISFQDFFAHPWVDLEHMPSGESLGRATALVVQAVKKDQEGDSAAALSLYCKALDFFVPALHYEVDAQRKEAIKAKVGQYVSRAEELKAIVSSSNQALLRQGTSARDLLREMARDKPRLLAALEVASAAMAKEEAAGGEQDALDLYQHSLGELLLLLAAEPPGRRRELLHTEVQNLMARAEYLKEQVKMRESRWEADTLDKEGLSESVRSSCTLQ

SMILES | % Inhibiton, CHK2 [1, 11] [%] | % Inhibiton, CHK2 [1, 12] [%] | % Inhibiton, CHK2 [1, 13] [%] | % Inhibiton, CDK2 ([2]; proteome HEL) [%] | % Inhibiton, CDK2 ([2]; proteome PC3) [%] | % Inhibiton, MAP2K4 [3, 14] [%] | % Inhibiton, MAP2K4 [3, 15] [%] | % Inhibiton, ILK [4, 16] [%] | % Inhibiton, ILK [4, 17] [%] | % Inhibiton, ILK [4, 18] [%] | % Inhibition ULK3 [5] [%] | % Inhibiton, NEK8 [6] [%] | % Inhibiton, CaMK1d [7] [%] | % Inhibition PIK3C3 [8] [%] | % Inhibition PEK ([9]; proteome HEL) [%] | % Inhibition PEK ([9]; proteome PC3) [%] | % Inhibiton, MRCKb [10, 19] [%] | % Inhibiton, MRCKb [10, 20] [%]
CCOc1cc(C(=O)N2CCC(N3CCN(C)CC3)CC2)ccc1Nc1ncc2c(n1)N(C1CCCC1)c1ccccc1C(=O)N2C [Compound 26] | -18.8 | 14.1 | 4.6 | 7 | -6.7 | -14.4 | -7.3 | 19.8 | 2 | -69.5 | 2.5 | -8.1 | 19.9 | 8.1 | -23.3 | -4.9 | 1.8 | 9.2
COc1cc(C(=O)N2CCC(N3CCN(C)CC3)CC2)ccc1Nc1ncc2c(n1)N(C1CCCC1)c1ccccc1C(=O)N2C [Compound 25, 11-cyclopentyl-2-((2-methoxy-4-(4-(4-methylpiperazin-1-yl)piperidine-1-carbonyl)phenyl)amino)-5-methyl-5H-benzo[e]pyrimido[5,4-b][1,4]diazepin-6(11H)-one] | 15.6 | 0.0283 | 11.3 | 9.4 | 5.0 | -7.6 | -9.0 | -3.0 | 8.4 | -5.9 | -3.7 | -18.9 | 5.8 | 4.0 | 6.4 | 6.5 | -5.1 | 6.2
